Reference: patent US12478628B2, “Germ cell nuclear factor ligands and methods of use thereof” (Saint Louis University, priority 2020, dated 2025)

Biological target: T1, GCNF LBD (Homo sapiens, UniProt Q15406)
T1 construct: Human GCNF (NR6A1) LBD (residues 248-480); made in house; host or cells: E. coli BL(21) DE3
T1 sequence (Q15406 248-480): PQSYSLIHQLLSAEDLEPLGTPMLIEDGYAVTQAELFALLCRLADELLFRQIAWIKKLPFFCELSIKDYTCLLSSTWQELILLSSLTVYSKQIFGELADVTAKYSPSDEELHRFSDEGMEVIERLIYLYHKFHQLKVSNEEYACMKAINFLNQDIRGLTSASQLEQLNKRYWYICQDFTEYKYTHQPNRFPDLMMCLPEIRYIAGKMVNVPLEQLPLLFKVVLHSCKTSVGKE
Assay: Differential scanning fluorimetry (DSF) of GCNF LBD
Format: binding
Conditions: 20 μM ligand; GCNF LBD Tm 41.9±0.6° C.; significance cutoff 2° C.; read-out: increase of melting temperature (ΔTm) of GCNF LBD
Description: DSF Assay. GCNF LBD (5 μM) were mixed with 1× Sypro orange (Invitrogen) in DSF buffer (50 mM HEPES, 50 mM KCl, 5 mM TCEP, 0.5 mM EDTA, pH 7.5). Test compounds was added at 1:1 molar equivalence as protein or replaced with DMSO control. Ten microliters (10 μL)×5 replicates for each sample were plated on 384-well PCR microplate. No protein control and no ligand references were also run simultaneously in 5 replicates on the same plate. A total of 450 compounds (Life Chemicals) previously selected from a nuclear-receptor-biased library targeting REV-ERB were analyzed. Thermal stability was assessed on a Quantstudio 6 instrument (Biosystems) by ramping the temperature from 25° C. to 95° C. at 0.05° C./s and protein melt shifts were subsequently quantified by Boltzmann-derived melting temperature (Tm) using the Protein Thermal Shift (ThermoFisher) software. Positive hits were identified when a thermal shift (ΔTm) of at least 2° C. was observed.
For the DSF ligand titration assay, ligands 30, 34 and 80 were titrated against 5 μM GCNF LBD with a ligand concentration series of 30, 20, 13, 9, 6, 4, 2.6, 1.7 and 0 μM from a 20 mM DMSO stock solution. DSF assay and analysis was then performed as described above. All DSF data were reported as mean±SEM.

Q: With `O=C(Cn1cc(S(=O)(=O)c2ccccc2)c2ccccc21)N1CCc2ccccc21` [Ligand 80, 2-[3-(benzenesulfonyl)-1H-indol-1-yl]-1-(2,3-dihydro-1H-indol-1-yl)ethan-1-one] as the compound, how does the ΔTm at 20 µM read?
A: > 2 °C
